From the supplement of paper PMC8633005

Tests used:
Test in all cases: drug sensitivity score (DSS) (DSS (unitless, 0-50 scale)); higher = more sensitive (stronger viability inhibition); extreme values may be limits of the assay
Details in all cases: 72 h; culture: 2D
FM-MEL-3 = tested on: FM-MEL-3
Method in brief: (§1)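 A 527-compound oncology library was screened in 384-well plates against melanoma cell lines and patient-derived melanoma cultures grown in 2D, the cultures at 1000–1500 cells per well. Each compound, in DMSO or water, was applied at five concentrations over a 10,000-fold range and incubated for 72 h at 37 °C before CellTiter-Glo luminescence readout of viability. A drug sensitivity score, a modified area-under-curve measure, was calculated from curves fitted in the in-house Breeze software.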

WM852 = tested on: WM852
Method in brief: as §1

Bowes = tested on: Bowes
Method in brief: as §1

FM-MEL-2 = tested on: FM-MEL-2
Method in brief: as §1

WM165 = tested on: WM165
Method in brief: as §1

FM-MEL-6 = tested on: FM-MEL-6
Method in brief: as §1

SK-MEL-2 = tested on: SK-MEL-2
Method in brief: as §1

SK-MEL-28 = tested on: SK-MEL-28
Method in brief: as §1

SMILES | drug sensitivity score (FM-MEL-3) | drug sensitivity score (WM852) | drug sensitivity score (Bowes) | drug sensitivity score (FM-MEL-2) | drug sensitivity score (WM165) | drug sensitivity score (FM-MEL-6) | drug sensitivity score (SK-MEL-2) | drug sensitivity score (SK-MEL-28)
CN(C)c1cc2c(cc1Sc1nc3c(N)nccc3n1CCNCC(C)(C)C)OCO2 [CUDC-305] | 13 | 7.2 | 13.8 | 9.7 | 16.1 | 5.3 | 10.7 | 8.6
COc1ccc(-c2nc(N3CCOCC3)c3sc(CN(C)c4ncc(C(=O)NO)cn4)cc3n2)cn1 [CUDC-907] | 36.9 | 20.8 | 22.5 | 33.1 | 38.5 | 32.8 | 33.1 | 28
CO[C@H]1C(=O)[C@]2(C)[C@@H](OC)C[C@H]3OC[C@@]3(OC(C)=O)[C@H]2[C@H](OC(=O)c2ccccc2)[C@]2(O)C[C@H](OC(=O)[C@H](O)[C@@H](NC(=O)OC(C)(C)C)c3ccccc3)C(C)=C1C2(C)C [Cabazitaxel] | 8.2 | 20.3 | 24.3 | 1.6 | 23.2 | 12.1 | 14.8 | 9.1
COc1cc2nccc(Oc3ccc(NC(=O)C4(C(=O)Nc5ccc(F)cc5)CC4)cc3)c2cc1OC [Cabozantinib] | 2.5 | 0.8 | 2.1 | 2.2 | 0 | 0.2 | 0 | 0
C=CC(=O)Nc1cc2c(Nc3ccc(F)c(Cl)c3)ncnc2cc1OCCCN1CCOCC1 [Canertinib] | 9.1 | 6.5 | 8.7 | 8.4 | 7.5 | 6.3 | 4.9 | 3.5
CCCCCOC(=O)Nc1nc(=O)n([C@@H]2O[C@H](C)[C@@H](O)[C@H]2O)cc1F [Capecitabine] | 0 | 0 | 0 | 0 | 0 | 0 | 0 | 0
CNC(=O)c1ccc(-c2cnc3ncc(Cc4ccc5ncccc5c4)n3n2)cc1F [Capmatinib] | 0 | 0 | 0 | 0 | 0 | 0 | 0 | 0
O=C(O)C1(C(=O)O)CCC1.[NH2-].[NH2-].[Pt+2] [Carboplatin] | 2.8 | 0 | 0 | 0.9 | 10.2 | 7.8 | 2 | 3.2
CC(C)C[C@H](NC(=O)[C@H](CCc1ccccc1)NC(=O)CN1CCOCC1)C(=O)N[C@@H](Cc1ccccc1)C(=O)N[C@@H](CC(C)C)C(=O)[C@@]1(C)CO1 [Carfilzomib] | 17.4 | 24.5 | 31.7 | 11 | 29.6 | 20.4 | 22.5 | 17
COc1cc2c(Oc3ccc4[nH]c(C)cc4c3F)ncnc2cc1OCCCN1CCCC1 [Cediranib] | 0 | 0 | 1.7 | 0 | 0 | 1.3 | 0 | 0
Cc1ccc(-c2cc(C(F)(F)F)nn2-c2ccc(S(N)(=O)=O)cc2)cc1 [Celecoxib] | 0 | 0 | 0 | 0 | 0 | 0 | 0 | 0
CCS(=O)(=O)N1CCN(c2ccc(Nc3ncc(C(N)=O)c(NC4CC4)n3)cc2)CC1 [Cerdulatinib] | 0 | 4 | 0.8 | 0 | 4.6 | 0.1 | 0 | 0
Cc1cc(Nc2ncc(Cl)c(Nc3ccccc3S(=O)(=O)C(C)C)n2)c(OC(C)C)cc1C1CCNCC1 [Ceritinib] | 4.3 | 1 | 0.3 | 4.3 | 4.5 | 2.6 | 0 | 1.5
CCN(CC)CCCC(C)Nc1ccnc2cc(Cl)ccc12 (configuration not stated) [Chloroquine] | 7.3 | 8.6 | 7 | 9.4 | 9.7 | 9.4 | 7 | 8.3
CC(C)[C@H]1C(=O)N[C@@H](CCCNC(=N)N)C(=O)NCC(=O)N[C@@H](CC(=O)O)C(=O)N[C@H](Cc2ccccc2)C(=O)N1C [Cilengitide] | 0 | 2.5 | 0 | 0.7 | 0 | 1 | 0 | 2
N.N.[Cl][Pt][Cl] [Cisplatin] | 5.8 | 5.1 | 5.6 | 4.2 | 19.2 | 4.5 | 4.4 | 9.2
Nc1nc(Cl)nc2c1ncn2[C@H]1C[C@H](O)[C@@H](CO)O1 [Cladribine] | 2.5 | 0.1 | 1.4 | 0 | 4.3 | 4.6 | 0 | 0.8
Nc1nc(Cl)nc2c1ncn2[C@@H]1O[C@H](CO)[C@@H](O)[C@@H]1F [Clofarabine] | 11.8 | 8.6 | 10.9 | 2.4 | 16.6 | 9.6 | 7.6 | 10.8
CCN(CC)CCOc1ccc(C(=C(Cl)c2ccccc2)c2ccccc2)cc1 [Clomifene] | 5.6 | 5.2 | 5.8 | 4.1 | 6.1 | 6.3 | 4.2 | 6.8
COc1c(OCCCN2CCOCC2)ccc2c1N=C(NC(=O)c1cnc(N)nc1)N1CCN=C21 [Copanlisib] | 7.1 | 6.5 | 8.3 | 10.2 | 6.5 | 4.3 | 3.5 | 8.3

SMILES | drug sensitivity score (FM-MEL-3) | drug sensitivity score (WM852) | drug sensitivity score (Bowes) | drug sensitivity score (FM-MEL-2) | drug sensitivity score (WM165) | drug sensitivity score (FM-MEL-6) | drug sensitivity score (SK-MEL-2) | drug sensitivity score (SK-MEL-28)
CC1(COc2ccc3c(c2)ncn3-c2ccc3cccc(N4CCC(N)CC4)c3n2)COC1 [Crenolanib] | 1.5 | 6.6 | 4.6 | 5 | 7 | 5.4 | 5.4 | 6.8
C[C@@H](Oc1cc(-c2cnn(C3CCNCC3)c2)cnc1N)c1c(Cl)ccc(F)c1Cl [Crizotinib] | 0 | 0 | 0 | 0 | 0 | 0 | 0 | 0
Nc1ccn([C@@H]2O[C@H](CO)[C@@H](O)[C@@H]2O)c(=O)n1 [Cytarabine] | 9.3 | 0 | 0 | 1.9 | 15.7 | 7.2 | 2.4 | 12.1
CC(C)(C)c1nc(-c2cccc(NS(=O)(=O)c3c(F)cccc3F)c2F)c(-c2ccnc(N)n2)s1 [Dabrafenib] | 2.7 | 1.1 | 1.1 | 1.5 | 18.1 | 0 | 0.9 | 20.5
COc1cc2ncnc(Nc3ccc(F)c(Cl)c3)c2cc1NC(=O)/C=C/CN1CCCCC1 [Dacomitinib] | 1 | 0.3 | 4.1 | 0.4 | 0 | 0.4 | 0 | 0
Cc1c2oc3c(C)ccc(C(=O)N[C@@H]4C(=O)N[C@H](C(C)C)C(=O)N5CCC[C@H]5C(=O)N(C)CC(=O)N(C)[C@@H](C(C)C)C(=O)O[C@@H]4C)c3nc-2c(C(=O)N[C@@H]2C(=O)N[C@H](C(C)C)C(=O)N3CCC[C@H]3C(=O)N(C)CC(=O)N(C)[C@@H](C(C)C)C(=O)O[C@@H]2C)c(N)c1=O [Dactinomycin] | 23.5 | 24.2 | 24.4 | 16.9 | 37.9 | 25.9 | 30.1 | 22.2
CO[C@@H](C(=O)N1Cc2[nH]nc(NC(=O)c3ccc(N4CCN(C)CC4)cc3)c2C1)c1ccccc1 [Danusertib] | 1.5 | 3.2 | 10.4 | 0 | 14.5 | 2.9 | 1 | 5.1
O=C(/C=C/c1cccnc1)NCCCCC1CCN(C(=O)c2ccccc2)CC1 [Daporinad] | 14.5 | 27.1 | 32.7 | 16.6 | 17.5 | 10.3 | 11.3 | 16.8
CCN(CC)CCN(Cc1ccc(-c2ccc(C(F)(F)F)cc2)cc1)C(=O)Cn1c(SCc2ccc(F)cc2)nc(=O)c2c1CCC2 [Darapladib] | 0 | 0 | 0 | 0.8 | 0 | 0.4 | 0.2 | 0.4
Cc1nc(Nc2ncc(C(=O)Nc3c(C)cccc3Cl)s2)cc(N2CCN(CCO)CC2)n1 [Dasatinib] | 0 | 0.1 | 1.9 | 0 | 5.3 | 0 | 0 | 3.4
COc1cccc2c1C(=O)c1c(O)c3c(c(O)c1C2=O)C[C@@](O)(C(C)=O)C[C@@H]3O[C@H]1C[C@H](N)[C@H](O)[C@H](C)O1 [Daunorubicin] | 8.3 | 4.6 | 4.5 | 6.8 | 13.4 | 7.4 | 4.7 | 7.2
CC[C@@](C)(Nc1ccnc(-c2c[nH]c3ncccc23)n1)C(=O)NCC(F)(F)F [Decernotinib] | 0 | 0 | 0 | 0.2 | 0 | 0 | 0 | 0.3
Nc1ncn([C@H]2C[C@H](O)[C@@H](CO)O2)c(=O)n1 [Decitabine] | 0 | 0 | 0 | 0 | 0.7 | 3.4 | 0 | 0
CC(=O)N(O)CCCCCNC(=O)CCC(=O)N(O)CCCCCNC(=O)CCC(=O)N(O)CCCCCN [Deferoxamine] | 0 | 4.9 | 2.9 | 0.6 | 3.8 | 1.8 | 0 | 0.9
C[C@@H]1C[C@H]2[C@@H]3CCC4=CC(=O)C=C[C@]4(C)[C@@]3(F)[C@@H](O)C[C@]2(C)[C@@]1(O)C(=O)CO [Dexamethasone] | 0 | 0 | 0 | 0 | 0 | 0 | 0 | 0
C[C@H]1O[C@@H](O[C@H]2[C@@H](O)C[C@H](O[C@H]3[C@@H](O)C[C@H](O[C@H]4CC[C@@]5(C)[C@H](CC[C@@H]6[C@@H]5C[C@@H](O)[C@]5(C)[C@@H](C7=CC(=O)OC7)CC[C@]65O)C4)O[C@@H]3C)O[C@@H]2C)C[C@H](O)[C@@H]1O [Digoxin] | 13.3 | 10.4 | 12.9 | 3.3 | 10.6 | 9.7 | 5.9 | 6.6
CCc1cnn2c(NCc3ccc[n+]([O-])c3)cc(N3CCCC[C@H]3CCO)nc12 [Dinaciclib] | 18.5 | 20 | 30.7 | 13.1 | 22.4 | 21.7 | 21.2 | 20.2
CC(=O)O[C@@]12CO[C@@H]1C[C@H](O)[C@@]1(C)C(=O)[C@H](O)C3=C(C)[C@@H](OC(=O)[C@H](O)[C@@H](NC(=O)OC(C)(C)C)c4ccccc4)C[C@@](O)([C@@H](OC(=O)c4ccccc4)[C@H]21)C3(C)C [Docetaxel] | 10.9 | 20.7 | 28.8 | 6.5 | 25.1 | 14.7 | 16.4 | 12.7
Cc1ccc(-n2nc(C(C)(C)C)cc2NC(=O)Nc2ccc(OCCN3CCOCC3)c3ccccc23)cc1 [Doramapimod] | 1.7 | 0 | 0 | 1.4 | 3.4 | 0.8 | 0 | 0
